Laboratory results as given in US9045421B2, “Reagent and method for detection of carboxylic acids by mass spectrometry” (University of Washington, priority 2010, dated 2015).

Test system: primary human bronchial cells
Test: Eicosanoid formation in calcium ionophore stimulated primary bronchial epithelial cells (LC/ESI-MSMS of AMPP amides)
Assay type: cell-based
Settings: +Ca ionophore (A23187, 10 uM, 20 min, 37° C.); 0.47 million cells per sample
Procedure: The University of Washington Institutional Review Board approved the studies involving human subjects, and written informed consent was obtained from all participants. Primary bronchial epithelial cells were isolated from a volunteer with asthma during bronchoscopy using a nylon cytology brush of cells from subsegmental airways. To establish primary culture, the epithelial cells were seeded into a culture vessel coated with type 1 collagen in bronchial epithelial basal media (BEBM, Lonza, Allendale, N.J.) supplemented with bovine pituitary extract, insulin, hydrocortisone, gentamicin, amphotericin B, fluconazole, retinoic acid, transferrin, triiodothyronine, epinephrine, and human recombinant epidermal growth factor (serum-free BEGM) and maintained at 37° C. in a humidified incubator. After expansion in vitro, passage 2 epithelial cells were grown to >90% confluence on a 12-well plate. The medium was changed to Hanks balanced salt solution, and the cells were treated with either calcium ionophore (A23187, 10 uM) or a DMSO-containing control solution for 20 min at 37° C. In some studies, the cytosolic phospholipase A2-α inhibitor Pyr-2^6 was present at 5 uM, added from a stock solution in DMSO. The synthesis of eicosanoids was stopped by the addition of 4 volumes of ice methanol with 0.2% formic acid. […] The studies were performed in duplicate. Samples were processed for derivatization with AMPP and LC/ESI-MSMS as for the serum samples.

With `CNc1ccc2oc(C[C@H]3O[C@@]4(CC[C@H]3C)O[C@H]([C@H](C)C(=O)c3ccc[nH]3)[C@H](C)C[C@H]4C)nc2c1C(=O)O` [Ca ionophore] the “11(S)-HETE level” value was 3.7 pg, the “15(S)-HETE level” value was 7.8 pg and the Arachidonic acid level was 242 pg. The PGD2 level was 4.4 pg, the PGE2 level was 39 pg and the PGF2α level was 60 pg. The TxB2 level was 1.3 pg.
